# Measurements reported in ChEMBL document CHEMBL1131274, “N6-(5,6-epoxynorbornyl)adenosine analogs as A1 adenosine agonists” (Bioorg Med Chem Lett, 1998).
# Assay: Potency to inhibit A1-adenosine receptor mediated cAMP accumulation in DDT1 MF-2 cells
# Type: functional, cell-based
# Details: Mesocricetus auratus
row,EC50,SMILES
1,159 nM,CCNC(=O)[C@H]1OC(n2cnc3c(NCC4CC5CC4C4OC54)ncnc32)[C@H](O)[C@@H]1O (some centres undefined)
2,37 nM,OC[C@H]1OC(n2cnc3c(NC4CCC5OC5C4)ncnc32)[C@H](O)[C@@H]1O (some centres undefined)
3,7.2 nM,OC[C@H]1OC(n2cnc3c(NC4CC=CCC4)ncnc32)[C@H](O)[C@@H]1O (some centres undefined)
4,18 nM,CCNC(=O)[C@H]1OC(n2cnc3c(NCCN4CCOCC4)ncnc32)[C@H](O)[C@@H]1O (some centres undefined)
5,262 nM,CCNC(=O)[C@H]1OC(n2cnc3c(NCc4ccco4)ncnc32)[C@H](O)[C@@H]1O (some centres undefined)
6,188 nM,OC[C@H]1OC(n2cnc3c(NCC4CC5C=CC4C5)ncnc32)[C@H](O)[C@@H]1O (some centres undefined)
7,35 nM,CCNC(=O)[C@H]1OC(n2cnc3c(NCC4CC5C=CC4C5)ncnc32)[C@H](O)[C@@H]1O (some centres undefined)
8,5.9 nM,CCNC(=O)[C@H]1OC(n2cnc3c(NC4CCC5OC5C4)ncnc32)[C@H](O)[C@@H]1O (some centres undefined)
9,641 nM,CCNC(=O)[C@H]1OC(n2cnc3c(NCC4CCCCO4)ncnc32)[C@H](O)[C@@H]1O (some centres undefined)
10,1.1 nM,CCNC(=O)[C@H]1OC(n2cnc3c(NC4CC=CCC4)ncnc32)[C@H](O)[C@@H]1O (some centres undefined)
11,2.8 nM,OC[C@H]1O[C@@H](n2cnc3c(NC4CCCC4)ncnc32)[C@H](O)[C@@H]1O [N6-CYCLOPENTYLADENOSINE]
12,3090 nM,OC[C@H]1OC(n2cnc3c(NCC4CCCCO4)ncnc32)[C@H](O)[C@@H]1O (some centres undefined)
13,537 nM,OC[C@H]1OC(n2cnc3c(NCC4CC5CC4C4OC54)ncnc32)[C@H](O)[C@@H]1O (some centres undefined)
14,217 nM,CCNC(=O)[C@H]1OC(n2cnc3c(NC4CC5CC4C4OC54)[n+]([O-])cnc32)[C@H](O)[C@@H]1O (some centres undefined)
